Earlier results in patent publication US20070154533A1, “Method of increasing testosterone and related steriod concentrations in women” (priority 2005, published 2007).
Read-outs that look alike come from different tables or passages of the source.

Assays:
[1] = circulating testosterone
[2] = molecular target: T1, sex hormone binding globulin (Homo sapiens, UniProt P04278); conditions: in women
T1 sequence (P04278 30-402): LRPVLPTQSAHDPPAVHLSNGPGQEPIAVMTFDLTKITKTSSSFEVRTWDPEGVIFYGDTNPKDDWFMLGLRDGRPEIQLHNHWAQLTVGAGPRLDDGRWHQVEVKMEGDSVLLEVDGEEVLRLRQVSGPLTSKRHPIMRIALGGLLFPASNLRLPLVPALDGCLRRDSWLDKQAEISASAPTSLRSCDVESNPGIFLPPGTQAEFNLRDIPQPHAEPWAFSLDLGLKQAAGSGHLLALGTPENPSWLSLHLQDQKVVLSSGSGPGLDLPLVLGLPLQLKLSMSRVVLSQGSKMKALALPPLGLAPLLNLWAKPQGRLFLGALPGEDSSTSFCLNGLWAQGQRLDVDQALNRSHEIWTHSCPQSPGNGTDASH

[3] = for Mean (±SD) serum free testosterone concentration: transdermal patch, 12 weeks, oophorectomized women on conjugated equine estrogens
albumin = albumin (Homo sapiens, UniProt P02768); conditions: in women
[4] = patch delivering 150 ug/day, HIV-infected women, over 12 weeks

Sequence of albumin (P02768 25-609): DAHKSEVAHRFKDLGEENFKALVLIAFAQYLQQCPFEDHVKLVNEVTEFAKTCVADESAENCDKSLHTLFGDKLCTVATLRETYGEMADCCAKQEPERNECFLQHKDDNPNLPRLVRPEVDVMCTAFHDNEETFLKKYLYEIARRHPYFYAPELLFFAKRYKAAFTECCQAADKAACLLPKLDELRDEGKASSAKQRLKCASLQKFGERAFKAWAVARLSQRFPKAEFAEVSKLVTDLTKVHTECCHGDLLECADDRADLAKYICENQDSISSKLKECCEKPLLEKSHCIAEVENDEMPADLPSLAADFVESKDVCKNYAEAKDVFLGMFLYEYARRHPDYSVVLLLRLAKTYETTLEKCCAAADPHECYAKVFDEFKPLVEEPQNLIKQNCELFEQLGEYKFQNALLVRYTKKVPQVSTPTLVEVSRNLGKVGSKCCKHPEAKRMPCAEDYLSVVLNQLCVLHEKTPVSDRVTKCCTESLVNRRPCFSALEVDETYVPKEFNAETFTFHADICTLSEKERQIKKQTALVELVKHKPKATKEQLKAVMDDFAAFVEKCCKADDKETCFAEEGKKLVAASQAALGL

In the case of `C[C@]12CC[C@H]3[C@@H](CCC4=CC(=O)CC[C@@]43C)[C@@H]1CC[C@@H]2O` [Testosterone, testosterone], the “Bound to protein in the blood” value [1] is given as 98%, the “Binding to sex hormone binding globulin” value [2] is given as “approximately 65%” and the “Scores on the telephone-based diary” value ([3]; higher dose) is given as “did not increase significantly”. For the same compound, the “Psychological Well-Being Index positive-well-being, depressed-mood, and composite scores” value ([3]; higher dose vs placebo) was “improved at the higher dose”, the “Percentages of women who had sexual fantasies, masturbated, or engaged in sexual intercourse at least once a week” value ([3]; higher dose, vs base line) was “increased two to three times from base line” and the “Brief Index of Sexual Functioning for Women scores” value ([3]; higher testosterone dose (300 μg per day), P=0.03 vs placebo) was “further increases in scores for frequency of sexual activity and pleasure-orgasm”. The “Mean (±SD) serum free testosterone concentration” value ([3]; 160 μg of testosterone per day) was 3.9 ± 2.4 pg/mL, the “Mean (±SD) serum free testosterone concentration” value ([3]; 300 μg of testosterone per day) was 4.9 ± 4.8 pg/mL and the “Bound weakly to albumin” value (albumin) was 33%. The “Increase in body weight” value [4] was 4%.
